For one compound, IL-6 expression folding and IL-1B expression folding results are on record in PMC11582173, “Synthesis, cytotoxicity, anti-inflammatory, anti-metastatic and anti-oxidant activities of novel chalcones incorporating 2-phenoxy-N-arylacetamide and thiophene moieties: induction of apoptosis in MCF7 and HEP2 cells” (Naunyn-Schmiedeberg's Archives of Pharmacology, 2024).

One assay relates to IL-6 gene. Nature of the assay: Real-time PCR, IL-6 gene expression. The assay is classed as cell-based, human. The following applies: relative to untreated control (1). Here is the method: (§1) The expression level of the following six genes (Ki-67, Survivin, Interleukin-1 beta (IL-1B), Interleukin-6 (IL-6), Cyclooxygenase-2 (COX-2) and protein kinase B (AKT1)) was determined in MCF7 and HEP2 treated with the IC50 of compound 5c. The untreated cells were used as a negative control for comparison purposes. […] Ki-67 is a popular proliferation marker for human tumor cells. […] Survivin is an inhibitor of apoptotic protein (IAP) family member, which is essential for cell division. The lowering of the expression of survivin inhibited tumor development, triggered apoptosis, and made tumor cells more susceptible to radiation and chemotherapy (Albadari and Li [2023]). […] IL-1B is a pleiotropic mediator of inflammation, which is produced in response to a variety of stressors (Aarreberg et al. [2019]). […] IL-6 is a pro-inflammatory cytokine that plays a significant role in the proliferation and differentiation of human cells. It promotes the production of numerous proteins involved in acute inflammation (Uciechowski and Dempke [2020]). […]
(§2) The expression level of the following six genes (Ki-67, survivin, AKT1, IL-6, COX2, and IL-1B) was examined using real-time polymerase chain reaction (qPCR) (Mohamed et al. [2023a]). […] The cycle threshold (Ct) was determined automatically. […]
(In general: In qPCR the cycle at which signal appears reflects the starting amount.)

The subject of a further assay is IL-1B gene. Nature of the assay: Real-time PCR, IL-1B gene expression. The format is cell-based, human. The following applies: relative to untreated control (1). Here is the method:
as §1, §2

Where [1] appears, read: HEP2 cells treated with IC50 of 5c.
[2] abbreviates: MCF7 cells treated with IC50 of 5c.

For the compound `COc1ccc(NC(=O)COc2ccc(C=CC(=O)c3cccs3)cc2)cc1` [Compound 5c, N-(4-Methoxyphenyl)-2-(4-(3-oxo-3-(thiophen-2-yl)prop-1-en-1-yl)phenoxy)acetamide], the IL-6 expression folding is recorded as 0.464±0.08 fold in the assay with IL-6 gene (setting [1]) and 0.814±0.079 fold in the assay with IL-6 gene (setting [2]). The IL-1B expression folding in the assay on IL-1B gene (setting [1]) is listed as 0.461±0.069 fold; with IL-1B gene (setting [2]), 0.4008±0.116 fold.
